Consider 30 compounds from patent publication US20240025906A1 (NEURON23, INC., priority 2022, published 2024).

Structures are written as SMILES. Some results are limits rather than exact numbers.

One test deals with T1, TYK2 JH2 (Homo sapiens, UniProt P29597).
T1 construct: purchased DiscoverX (KINOMEscan KdELECT service); host or cells: E. coli BL21-derived (T7 phage display) or HEK-293
In words: TYK2 JH2 binding assay (KINOMEscan KdELECT competitive binding). To be noted: TYK2 JH2 domain, KINOMEscan KdELECT (Assay A); read-out: Biochemical TYK2_JH2_Kd. The gist of the method: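 The assay measures displacement of DNA- or phage-tagged TYK2 pseudokinase domain from an affinity resin; compound binding lowers the amount captured, read by qPCR. Incubation lasts 1 h at room temperature.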

For test [1], the system named is JAK1/TYK2 pSTAT5 (Tyr694/699) in THP-1 cell line. In words: IFNa-stimulated JAK1/TYK2 pSTAT5 (Tyr694/699) inhibition cellular assay, AlphaLISA. The test is classed as cell-based. To be noted: Homo sapiens; THP-1 cells, IFNa-stimulated, AlphaLISA (Assay B); read-out: Cellular THP1_IFNa-pSTATS_IC50. The gist of the method: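 THP-1 cells (2e4/well) in HBSS preincubated 1 h at 37° C. with compound (final 10000–0.04 nM, 8 points, 6-fold), then stimulated with IFNa (100 ng/mL stock) for 30 min before lysis. pSTAT5 (Tyr694/699) read by AlphaLISA at 615 nm; IC50 from four-parameter logistic fit with bottom fixed at 0 and Hill slope at −1.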

T1 sequence (P29597 589-875 limits assumed): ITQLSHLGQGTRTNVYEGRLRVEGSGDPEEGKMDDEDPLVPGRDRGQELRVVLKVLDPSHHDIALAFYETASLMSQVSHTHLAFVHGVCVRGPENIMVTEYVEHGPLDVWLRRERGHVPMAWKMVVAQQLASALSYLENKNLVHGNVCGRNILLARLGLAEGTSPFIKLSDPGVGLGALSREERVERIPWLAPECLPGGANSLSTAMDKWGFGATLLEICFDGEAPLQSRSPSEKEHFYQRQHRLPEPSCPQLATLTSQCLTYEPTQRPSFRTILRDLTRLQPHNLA

On to `CNc1ncc(-c2ncn(C)n2)c2cc(NC(=O)C3CC3)ncc12` [Example 141, N-(S-(1-methyl-1H-1,2,4-triazol-3-yl)-8-(methylamino)-2,7-naphthyridin-3-yl)cyclopropanecarboxamide], for which the Kd on TYK2 JH2 was at most 100 nM. For the same compound, the IC50 in test [1] was above 500 nM.

Turning to `CNc1ncc(-c2nc3ccccc3o2)c2cc(NC(=O)C3CC3)ncc12` [Example 142, N-(5-(benzo[d]oxazol-2-yl)-8-(methylamino)-2,7-naphthyridin-3-yl)cyclopropanecarboxamide], the Kd at TYK2 JH2 is at most 100 nM. For the same compound, in test [1], the IC50 was at most 500 nM.

Regarding `CNc1ncc(-c2ccc(C)o2)c2cc(NC(=O)C3CC3)ncc12` [Example 143, N-(8-(methylamino)-5-(5-methylfuran-2-yl)-2,7-naphthyridin-3-yl)cyclopropanecarboxamide], the Kd at TYK2 JH2 was at most 100 nM. Moreover, in test [1], the IC50 is at most 500 nM.

For `CNc1ncc(-c2ccc(C(=O)C3CC3)cc2)c2cc(NC(=O)C3CC3)ncc12` [Example 144, N-(5-(4-(cyclopropanecarbonyl)phenyl)-8-(methylamino)-2,7-naphthyridin-3-yl)cyclopropanecarboxamide], the Kd at TYK2 JH2 is at most 100 nM. Also, the IC50 in test [1] was above 500 nM.

For `CNc1ncc(-c2nc3ccccc3s2)c2cc(NC(=O)C3CC3)ncc12` [Example 145, N-(5-(benzo[d]thiazol-2-yl)-8-(methylamino)-2,7-naphthyridin-3-yl)cyclopropanecarboxamide], at TYK2 JH2, the Kd was at most 100 nM. The IC50 in test [1] is at most 500 nM.

`CCn1ccc(-c2cnc(NC)c3cnc(NC(=O)C4CC4)cc23)n1` [Example 147, N-(5-(1-ethyl-1H-pyrazol-3-yl)-8-(methylamino)-2,7-naphthyridin-3-yl)cyclopropanecarboxamide]: the Kd at TYK2 JH2 was at most 100 nM. In addition, the IC50 in test [1] is at most 500 nM.

Take `CNc1ncc(-c2ccn(C(C)C)n2)c2cc(NC(=O)C3CC3)ncc12` [Example 148, N-(5-(1-isopropyl-1H-pyrazol-3-yl)-8-(methylamino)-2,7-naphthyridin-3-yl)cyclopropanecarboxamide]: the Kd on TYK2 JH2 is at most 100 nM. For the same compound, the IC50 in test [1] was at most 500 nM.

Turning to `CNc1ncc(-c2ccn(CC(C)C)n2)c2cc(NC(=O)C3CC3)ncc12` [Example 149, N-(5-(1-isobutyl-1H-pyrazol-3-yl)-8-(methylamino)-2,7-naphthyridin-3-yl)cyclopropanecarboxamide], the Kd on TYK2 JH2 was at most 100 nM. Further, the IC50 in test [1] is above 500 nM.

For `CNc1ncc(-c2ccn(Cc3ncn(C)n3)n2)c2cc(NC(=O)C3CC3)ncc12` [Example 150, N-(5-(1-((1-methyl-1H-1,2,4-triazol-3-yl)methyl)-1H-pyrazol-3-yl)-8-(methylamino)-2,7-naphthyridin-3-yl)cyclopropanecarboxamide], the Kd at TYK2 JH2 is at most 100 nM. For the same compound, in test [1], the IC50 was above 500 nM.

As to `CNc1ncc(-c2ccn(Cc3nccs3)n2)c2cc(NC(=O)C3CC3)ncc12` [Example 151, N-(8-(methylamino)-5-(1-(thiazol-2-ylmethyl)-1H-pyrazol-3-yl)-2,7-naphthyridin-3-yl)cyclopropanecarboxamide], the Kd on TYK2 JH2 was at most 100 nM. In addition, in test [1], the IC50 was above 500 nM.

For the compound `CNc1ncc(-c2ccn(Cc3noc(C)n3)n2)c2cc(NC(=O)C3CC3)ncc12` [Example 152, N-(5-(1-((5-methyl-1,2,4-oxadiazol-3-yl)methyl)-1H-pyrazol-3-yl)-8-(methylamino)-2,7-naphthyridin-3-yl)cyclopropanecarboxamide], at TYK2 JH2, the Kd is at most 100 nM. Further, the IC50 in test [1] is above 500 nM.

Take `CNc1ncc(-c2ccn(CC3CCSCC3)n2)c2cc(NC(=O)C3CC3)ncc12` [Example 153A, N-(8-(methylamino)-5-(1-((tetrahydro-2H-thiopyran-4-yl)methyl)-1H-pyrazol-3-yl)-2,7-naphthyridin-3-yl)cyclopropanecarboxamide]: at TYK2 JH2, the Kd was at most 100 nM. The IC50 in test [1] was above 500 nM.

Take `CNc1ncc(-c2ccn(CC3CCS(=O)(=O)CC3)n2)c2cc(NC(=O)C3CC3)ncc12` [Example 153B, N-(5-(1-((1,1-dioxidotetrahydro-2H-thiopyran-4-yl)methyl)-1H-pyrazol-3-yl)-8-(methylamino)-2,7-naphthyridin-3-yl)cyclopropanecarboxamide]: the Kd at TYK2 JH2 was at most 100 nM. Moreover, in test [1], the IC50 is above 500 nM.

For `CNc1ncc(-c2ccn(Cc3ccccn3)n2)c2cc(NC(=O)C3CC3)ncc12` [Example 154, N-(8-(methylamino)-5-(1-(pyridin-2-ylmethyl)-1H-pyrazol-3-yl)-2,7-naphthyridin-3-yl)cyclopropanecarboxamide], the Kd at TYK2 JH2 was at most 100 nM. Also, in test [1], the IC50 is above 500 nM.

On to `CNc1ncc(-c2nc3ccccn3n2)c2cc(NC(=O)C3CC3)ncc12` [Example 155, N-(5-([1,2,4]triazolo[1,5-a]pyridin-2-yl)-8-(methylamino)-2,7-naphthyridin-3-yl)cyclopropanecarboxamide], for which the Kd on TYK2 JH2 was at most 100 nM. The IC50 in test [1] was at most 500 nM.

As for `CNc1ncc(-c2ccn3nc(N4CCC4)nc3c2)c2cc(NC(=O)C3CC3)ncc12` [Example 156, N-(5-(2-(azetidin-1-yl)-[1,2,4]triazolo[1,5-a]pyridin-7-yl)-8-(methylamino)-2,7-naphthyridin-3-yl)cyclopropanecarboxamide], at TYK2 JH2, the Kd was at most 100 nM. Besides, the IC50 in test [1] is above 500 nM.

As to `CNc1ncc(-c2nc(-c3ccccc3)co2)c2cc(NC(=O)C3CC3)ncc12` [Example 157, N-(8-(methylamino)-5-(4-phenyloxazol-2-yl)-2,7-naphthyridin-3-yl)cyclopropanecarboxamide], on TYK2 JH2, the Kd was at most 100 nM. In test [1], the IC50 was at most 500 nM.

On to `O=C(Nc1cc2c(-c3ccccc3)cnc(NCCO)c2cn1)C1CC1` [Example 160, N-(8-((2-hydroxyethyl)amino)-5-phenyl-2,7-naphthyridin-3-yl)cyclopropanecarboxamide], for which the Kd on TYK2 JH2 was at most 100 nM. Moreover, in test [1], the IC50 is above 500 nM.

`CNc1ncc(-c2ccccc2)c2cc(NC(=O)C3(F)CC3)ncc12` [Example 161, 1-fluoro-N-(8-(methylamino)-5-phenyl-2,7-naphthyridin-3-yl)cyclopropane-1-carboxamide]: the Kd at TYK2 JH2 was at most 100 nM. In addition, in test [1], the IC50 is above 500 nM.

For the compound `CNc1ncc(-c2ccccc2)c2cc(NC(C)C)ncc12` [Example 162, N^6-isopropyl-N^1-methyl-4-phenyl-2,7-naphthyridine-1,6-diamine], the Kd at TYK2 JH2 was in the range of 100 to 1000 nM. In addition, the IC50 in test [1] is above 500 nM.

`CNc1nc(C)cc2cc(NC(=O)C3CC3)ncc12` [Example 163, N-(6-methyl-8-(methylamino)-2,7-naphthyridin-3-yl)cyclopropanecarboxamide]: the Kd at TYK2 JH2 fell in the range of 100 to 1000 nM. Besides, the IC50 in test [1] is above 500 nM.

For `C=Cc1cc2cc(NC(=O)C3CC3)ncc2c(NC)n1` [Example 164, N-(8-(methylamino)-6-vinyl-2,7-naphthyridin-3-yl)cyclopropanecarboxamide], on TYK2 JH2, the Kd was in the range of 100 to 1000 nM. In test [1], the IC50 was above 500 nM.

As for `CCc1cc2cc(NC(=O)C3CC3)ncc2c(NC)n1` [Example 165, N-(6-ethyl-8-(methylamino)-2,7-naphthyridin-3-yl)cyclopropanecarboxamide], the Kd at TYK2 JH2 is at most 100 nM. In test [1], the IC50 was above 500 nM.

Consider `CNc1ncc(-c2ccc(-n3cccn3)cc2)c2cc(NC(=O)C3CC3)ncc12` [Example 166, N-(5-(4-(1H-pyrazol-1-yl)phenyl)-8-(methylamino)-2,7-naphthyridin-3-yl)cyclopropanecarboxamide], for which, at TYK2 JH2, the Kd is at most 100 nM. Further, the IC50 in test [1] was above 500 nM.

As to `CNc1ncc(/C=C/c2cccc(OC)c2)c2cc(NC(=O)C3CC3)ncc12` [Example 167, (E)-N-(5-(3-methoxystyryl)-8-(methylamino)-2,7-naphthyridin-3-yl)cyclopropanecarboxamide], on TYK2 JH2, the Kd was at most 100 nM. In addition, the IC50 in test [1] was at most 500 nM.

In the case of `CNc1ncc(-c2cccc(COC)c2)c2cc(NC(=O)C3CC3)ncc12` [Example 168, N-(5-(3-(methoxymethyl)phenyl)-8-(methylamino)-2,7-naphthyridin-3-yl)cyclopropanecarboxamide], the Kd at TYK2 JH2 is at most 100 nM. Besides, the IC50 in test [1] is above 500 nM.

`CNc1ncc(-c2ccc(COC)cc2)c2cc(NC(=O)C3CC3)ncc12` [Example 169, N-(5-(4-(methoxymethyl)phenyl)-8-(methylamino)-2,7-naphthyridin-3-yl)cyclopropanecarboxamide]: the Kd at TYK2 JH2 was at most 100 nM. Besides, the IC50 in test [1] is above 500 nM.

`CNc1ncc(-c2ccc(C(=O)N(C)C)cc2)c2cc(NC(=O)C3CC3)ncc12` [Example 170, 4-(6-(cyclopropanecarboxamido)-1-(methylamino)-2,7-naphthyridin-4-yl)-N,N-dimethylbenzamide]: at TYK2 JH2, the Kd is at most 100 nM. Further, the IC50 in test [1] was at most 500 nM.

With `CNc1ncc(-c2ccc(-c3ccccn3)cc2)c2cc(NC(=O)C3CC3)ncc12` [Example 171, N-(8-(methylamino)-5-(4-(pyridin-2-yl)phenyl)-2,7-naphthyridin-3-yl)cyclopropanecarboxamide], the Kd at TYK2 JH2 is at most 100 nM. In addition, the IC50 in test [1] is at most 500 nM.

Take `CNc1ncc(-c2cccc(COCCOC)c2)c2cc(NC(=O)C3CC3)ncc12` [Example 172, N-(5-(3-((2-methoxyethoxy)methyl)phenyl)-8-(methylamino)-2,7-naphthyridin-3-yl)cyclopropanecarboxamide]: the Kd at TYK2 JH2 was at most 100 nM. Besides, the IC50 in test [1] is above 500 nM.
